One assay deals with intact, female rats. Description: Hematocrit and plasma osmolality during chronic relaxin infusion. The assay is classed as in vivo, rat. Conditions: for Hematocrit, Difference between baseline and Day 5 / Plasma osmolality, Difference between baseline and Day 5: 4 μg/h s.c. infusion. As for the experimental part:
At the beginning of each experiment, immediately after opening the arterial catheter and before infusion of fluids, 100 μl of blood was collected into a heparinized tube. After centrifugation to separate blood cells from plasma, the latter was frozen at −20° C. until assay for osmolality. Then, three 30-minute baseline urine collections with midpoint blood samples and continuous recording of MAP were made on one or two occasions separated by at least 48 hours, in order to accurately measure control MAP, GFR, ERPF, and ERVR (MAP/ERPF). The hematocrit was also routinely determined on these midpoint blood samples. The renal clearances of IN and PAH were used to assess GFR and ERPF, respectively. […] Next, an osmotic minipump containing purified porcine RLX (4 μg/hour; n=7 rats), rhRLX (4 μg/hour; n=5) or vehicle (n=4) was implanted. MAP, GFR, ERPF, and ERVR were assessed on days 2 and 5 of the infusion, and 5-12 days after depletion of the 7-day minipump. Details of our methodologies for the assessment of GFR and ERPF in chronically instrumented, conscious rats including the measurement of IN and PAH in both plasma and urine have been previously published. Conrad (1984) Kidney Int. 26:24-29; and Danielson and Conrad (1995) J. Clin. Invest. 96:482-490. Circulating relaxin concentrations of 20-40 ng/mL have been measured in rats of 12-14 gestational days. Sherwood et al. (1980) Endocrinol. 107:691-698. An infusion rate of 4 μg/hour for purified porcine RLX or rhRLX would be expected to produce plasma levels of 20-40 ng/mL.
Plasma osmolality was measured using a freezing-point depression instrumentation osmometer (Model 3MO, Advanced Instruments, Needham Heights, Mass.). Plasma and urine IN and PAH were assayed by standard techniques. Urinary sodium concentration was measured by ion selective electrode (Sodium-Potassium Chemistry Module, Beckman Instruments, Inc., Brea, Calif.). Urinary cGMP was determined by specific radioimmunoassay as previously described. Conrad and Vernier (1989) Am. J. Physiol. 257:R847-R853. Urinary NOX was measured by reduction of nitrate to nitrite, the latter determined by the Griess reaction which produces a calorimetric product measured at 540 nm (Nitrate/Nitrite Colorimetric Assay Kit, Cayman Chemical, Ann Arbor, Mich.).
Data are presented as mean±SEM. rhRLX, recombinant human relaxin. RLX was infused at 4 μg/h by osmotic minipump s.c. There were 7, 4, and 5 rats, respectively, in the porcine RLX, vehicle, and rhRLX groups at baseline, and days 2 and 5 of treatment. During the post RLX period, 6, 2, and 2 rats were studied in the porcine RLX, vehicle and rhRLX groups. Two of the rats in the vehicle group received Ringer's solution (vehicle for porcine RLX), and two received 20 mM sodium acetate, pH 5.0 (vehicle for rhRLX). The results were not different, and therefore, the data were combined. *p<0.05 vs baseline, Hp<0.05 RLX vs vehicle.

For assay [1], the system named is infarct and peri-infarct areas of the left ventricle. Description: Rat LCAL model: number of venules on H & E sections. The assay is classed as in vivo. Here is the method: Female Sprague Dawley rats, approximately 12-weeks of age were used. Rats were anesthetized by intraperitoneal (i.p.) injection of up to 1 ml/kg ketamine/medetomidine (6:4). Following exteriorization of the heart, the left coronary artery was ligated near its origin with a silk suture. In sham surgery control animals, the suture was placed superficially into the muscle adjacent to the coronary artery. Post-closure EKG's were monitored for S-T segment elevation in LCAL animals to confirm the outcome of ligation. Immediately following cardiac surgery, a primed mini-osmotic pump containing relaxin or vehicle (20 mM acetate, pH 5.0) was aseptically implanted into a subcutaneous (s.c.) pocket on the dorsal interscapular region. Vehicle or relaxin (0.1 mg/kg/day) was delivered as a continuous s.c. infusion for 7 or 21 days to either sham or LCAL animals. Animals were terminated on day 7 or 21, and the peri-infarct regions anterior to the scar in the left ventricle, or equivalent sites on sham surgery animals were harvested.
The number of venules, arterioles and capillaries in the infarct and peri-infarct areas of the left ventricle were quantified by counting individual vessels on H & E (hematoxylin and eosin) stained sections. Numbers of venules, arterioles and capillaries were determined by counting in the area of the infarct, and in the right and left junction areas between the infarcted free wall and viable myocardium. Quantitation of venules and arterioles were obtained as total number of vessels in the entire area in each of 3 H&E stained transverse sections of the heart, i.e. apical, basal and midway between apical and basal levels. Quantitation was performed by a histopathologist blinded to the treatment groups. Venules comprised the observed increases in numbers of collateral vessels post-infarction. All veins counted in high dry fields were summed to yield vessel number per level. Three levels (apical, basal, and middle) were summed for each animal to yield total number of veins. N=4-5 animals per treatment group. […]

The test system of another assay is human subjects. As to the kind of experiment: Clinical trial: blood pressure and creatinine clearance. Type of assay: in vivo. As for the experimental part:
A clinical trial was conducted with human subjects, age 18 to 70 years. Subjects were treated with either 10 μg relaxin/kg body weight/day (minimum of 36 subjects), 25 μg relaxin/kg body weight/day (minimum of 72 subjects), or placebo (minimum of 72 subjects) for 24 weeks. Administration was by continuous subcutaneous infusion, using a pump. The relaxin was recombinant human relaxin (rhRlx). At various time points, diastolic blood pressure, systolic blood pressure, and creatinine clearance (as a measure of renal function) were measured. Creatinine clearance was calculated using the following formulas:
Creatinine clearance=((140−age)×weight (kg)/72×serum creatinine (mg/dL))×0.85
Creatinine clearance=(140−age)×weight (kg)/72×serum creatinine (mg/dL)
The change in each measured parameter was calculated (value at week x-week 0 value). […] The threshold for obtaining this effect was greater than 10 μg rhRLXN/kg/day. […] This latter result indicates an increase in blood flow.

The mark [2] stands for this setting: Baseline, before 4 μg/h s.c. minipump.

Marks after values point to notes of the source that are not given here.

Turning to “Porcine RLX: lyophilized, purified porcine relaxin (Sherwood and O'Byrne 1974), dissolved in Ringer's solution”, in the assay with intact, female rats, the “Hematocrit, Difference between baseline and Day 5” value is on record as −4 ± 1 %. Moreover, in the assay on intact, female rats, the “Plasma osmolality, Difference between baseline and Day 5” value is given as −14 ± 3 mOsm/kg H2O. The Hematocrit with intact, female rats (setting [2]) is given as 42 ± 1%; in the assay with intact, female rats (Day 2 of 4 μg/h s.c. infusion), 39 ± 1* %; in the assay with intact, female rats (Day 5 of 4 μg/h s.c. infusion), 37 ± 1*† %; with intact, female rats (Post RLX Day 5-12) it was 40 ± 1%. Besides, the Plasma osmolality in the assay with intact, female rats (setting [2]) was 301 ± 2 mOsm/kg H2O; with intact, female rats (Day 2 of 4 μg/h s.c. infusion), 289 ± 2*† mOsm/kg H2O; in the assay with intact, female rats (Day 5 of 4 μg/h s.c. infusion), 287 ± 2*† mOsm/kg H2O; with intact, female rats (Post RLX Day 5-12), 299 ± 2 mOsm/kg H2O.
As to “rhRLX: recombinant human relaxin, identical in amino acid sequence to the product of the human H2 gene; A chain of 24, B chain of 29 amino acids”, the “Hematocrit, Difference between baseline and Day 5” value in the assay on intact, female rats is on record as −2 ± 1 %. Further, in the assay with intact, female rats, the “Plasma osmolality, Difference between baseline and Day 5” value is −12 ± 2 mOsm/kg H2O. Further, the Hematocrit in the assay on intact, female rats (setting [2]) is given as 39 ± 0%; in the assay with intact, female rats (Day 2 of 4 μg/h s.c. infusion), 37 ± 1* %; in the assay with intact, female rats (Day 5 of 4 μg/h s.c. infusion), 37 ± 1*† %; in the assay on intact, female rats (Post RLX Day 5-12), 40%. Moreover, the Plasma osmolality in the assay with intact, female rats (setting [2]) is listed as 299 ± 2 mOsm/kg H2O; in the assay on intact, female rats (Day 2 of 4 μg/h s.c. infusion), 291 ± 3*† mOsm/kg H2O; in the assay on intact, female rats (Day 5 of 4 μg/h s.c. infusion), 286 ± 2*† mOsm/kg H2O; in the assay with intact, female rats (Post RLX Day 5-12), 302 mOsm/kg H2O. For the same substance, the “number of venules in the infarct region” value in assay [1] (day 7, 0.1 mg/kg/day) is reported as 163±8. Also, the “number of venules (vessel number) in the infarct region” value in assay [1] (day 21, 0.1 mg/kg/day) stood at 209±13. Further, the “number of vessels in analogous area of the left ventricle” value in assay [1] (sham surgery) is listed as “did not alter”. For the same substance, the “renal function, as measured by creatinine clearance” value in the assay with human subjects (10 μg rhRLXN/kg/day (FIG. 12)) and in the assay on human subjects (25 μg rhRLXN/kg/day (FIG. 13)) was “improvement” throughout. The diastolic pressure entry in the assay with human subjects (25 μg/kg/day s.c. infusion, about week 2 through week 24 (FIG. 10)) is “reduced”. In the assay with human subjects (25 μg/kg/day s.c. infusion, about week 2 through week 24 (FIG. 11)), the systolic pressure result is given as “reduced”. In addition, the “threshold for reducing diastolic and systolic pressure” value with human subjects (human, in vivo) is “greater than 10 μg rhRLXN/kg/day”.
